Reference: patent US20040204383A1, “Lysophosphatidic acid analogs and inhibition of neointima formation” (priority 2003, published 2004)

Legend:
rat carotid arteries = assay: Induction of neointima formation in rat carotid artery by topical application; assay type: in vivo; details: for neointimal growth: 2.5 μM, 1 h exposure, monitored up to 8 wk (FIG. 4A)
From the text: Briefly, the right carotid artery of anesthetized adult male Sprague-Dawley rats (250-300 g) was surgically exposed. The caudal origin of the common carotid artery was ligated using a vessel clip, followed by exposure and ligation of the internal carotid artery above the bifurcation. The external carotid artery was exposed, and a polyethylene catheter was inserted such that it never reached the common carotid artery, thereby avoiding mechanical injury to the vessel. The clip occluding the common carotid artery was temporarily released, and the vessel was rinsed with a retrograde injection of 500 μl physiological saline to remove residual blood. The vessel was again clipped, and 100 μl of treatment solution was injected. After 60 min of incubation, the cannula was withdrawn, the external carotid artery was ligated, and blood flow was restored. Animals were allowed to recover and were killed 7-56 d later by intracardiac perfusion of 10% buffered formaldehyde (pH 7.4). The common carotid artery from the […] to the bifurcation was dissected, embedded in paraffin, and processed for histological analysis. Five μm-thick sections were cut and stained with hematoxylin and eosin or Masson's trichrome stain. Intima to media ratios were quantified using an image analysis system (Scion Image CMS-800).

[1] = system: vascular smooth muscle cells; assay: Phenotypic modulation and dedifferentiation of cultured VSMCs (morphology, hCAD mRNA); assay type: cell-based, rat; details: for morphology of VSMCs: 1 μM for 3 days, cultures established in 2 ng/ml IGF-1
Protocol: Expression of lysophosphatidic acid-specific G protein-coupled plasma membrane receptors in rat carotid arteries was examined by RT-PCR as described earlier by Wang et al. (2002). To quantify heavy caldesmon mRNA, quantitative PCR was performed applying the real-time SYBR Green PCR method using a Sequence Detection System Model 7700 (Applied Biosystems) instrument. Rat heavy caldesmon and GAPDH (reference control mRNA)-specific primers were designed with Primer Express Software (Applied Biosystems), and forward and reverse primers were as follows: 5′-[…]-3′ (SEQ ID NO:1) and 5′-[…]-3′ (SEQ ID NO:2) for heavy caldesmon; 5′-[…]-3′ (SEQ ID NO:3) and 5′-[…]-3′ (SEQ ID NO:4) for GAPDH. Amplification reaction was performed with SYBR Green PCR Master Mix (Applied Biosystems) following the manufacturer's protocol. mRNA abundance calculation was based on Ct values as described previously (Wang et al., 2002). The expression level of heavy caldesmon mRNA was normalized to GAPDH mRNA. Each PCR reaction was performed at least three times, and the result was expressed as mean±SEM. Statistical comparison of mRNA expression was evaluated by ANOVA, and P<0.05 was considered statistically significant.
It has been reported that unsaturated lysophosphatidic acid species induced phenotypic modulation of cultured vascular smooth muscle cells (VSMCs). Because the neointimal response and PPARγ display a similar selectivity for unsaturated lysophosphatidic acid, that activation of PPARγ plays a role in the phenotypic dedifferentiation is hypothesized herein. This hypothesis was tested in a culture system in which IGF-1 maintains the differentiated spindle shape of vascular smooth muscle cells as indicated by high levels of heavy caldesmon (hCAD) mRNA expression.

PPARγ = assay: Immunohistological staining for PPARγ in treated rat carotid arteries; assay type: in vivo; details: LPA 2.5 μM, 4 wk after treatment; LDL data not shown
Protocol: (§1) FIGS. 7A-D show immunohistological staining for PPARγ in rat carotid arteries. Only a few nuclei show PPARγ immunoreactivity in a carotid artery 4 wk after treatment with 2.5 μM LPA 20:0 (FIG. 7A). In contrast, the multilayered neointima elicited by LPA 20:4 expresses high levels of PPARγ immunoreactivity (FIG. 7B). Activation of PPARγ within neointima in LPA 20:4-treated carotid arteries is indicated by the strong expression of CD36 in a distribution that overlaps that of PPARγ (FIG. 7D). […] Anti-PPARγ and anti-CD36 were from Santa Cruz Biotechnology, Inc. Bars, 250 μm.
Expression of PPARγ protein was examined in rat carotid arteries exposed to lysophosphatidic acid or minimally oxidized LDL.

CD36 = assay: Immunostaining for CD36 in treated rat carotid arteries; assay type: in vivo; details: LPA 2.5 μM, 4 wk after treatment; LDL data not shown
Protocol: as §1
The scavenger receptor CD36, a PPARγ-regulated gene, contains a PPAR response element within its promoter between base pairs −273 and −261. CD36 plays a critical role in lipid uptake by binding and transporting oxidized lipids, including minimally oxidized LDL. Thus, this pathway could provide a source of ligands, such as lysophosphatidic acid, alkyl-GP, and AZ-PC, to sustain PPARγ activation. Acyl and alkyl forms of lysophosphatidic acid both accumulate in human atherosclerotic plaques. Lysophosphatidic acid activates CD36-mediated lipid uptake into macrophages through a PPARγ-PPRE-dependent mechanism.

[2] = system: CD36(−273)-Rluc reporter gene; assay: CD36(−273)-Rluc reporter gene (with PPRE) in CV-1 cells; assay type: cell-based; details: 10 μM, CV-1 cells (FIG. 7E)
Protocol: (§2) Therefore, the investigators compared the unique in vivo neointima-eliciting lysophosphatidic acid structure-activity relationship with that of PPARγ using an in vitro assay that utilizes an acyl-coenzyme A oxidase-luciferase (PPRE-Acox-Rluc) reporter gene construct containing a peroxisome proliferator-activated receptor response element. CV-1 cells were plated in 96-well plates (5×10^3 cells per well) in DME supplemented with 10% FBS. The next day, the cells were transiently transfected with 125 ng of pGL3-PPRE-acyl-CoA oxidase (Acox)-renilla luciferase), or 125 ng pGL3-CD36(−273), or pGL3-CD36(−261), 62.5 ng of pcDNAI-PPARγ, and 12.5 ng of pSV-β-galactosidase (Promega) using LipofectAMINE™ 2000 (Invitrogen). Twenty four hours after transfection, cells were treated with 1% FBS-supplemented OptiMEMI™ (Invitrogen) containing DMSO or test compound (10 μM) in DMSO for 20 h. Luciferase and β-galactosidase activities were measured with the Steady-Glo® Luciferase Assay System (Promega) and the Galacto-Light Plus™ System (Applied Biosystems), respectively. Samples were run in quadruplicate, and the mean±SE were calculated. Data are representative of at least three independent transfections. Student's t test was used for null hypothesis testing, and P<0.05 was considered significant.

[3] = system: CD36(−261)-Rluc reporter gene; assay: CD36(−261)-Rluc reporter gene (deleted PPRE) in CV-1 cells; assay type: cell-based; details: 10 μM, CV-1 cells (FIG. 7E)
Protocol: as §2

LPA3 = molecular target: T1, LPA3 (Homo sapiens, UniProt Q9UBY5); details: cited from earlier work
T1 sequence (Q9UBY5 1-353): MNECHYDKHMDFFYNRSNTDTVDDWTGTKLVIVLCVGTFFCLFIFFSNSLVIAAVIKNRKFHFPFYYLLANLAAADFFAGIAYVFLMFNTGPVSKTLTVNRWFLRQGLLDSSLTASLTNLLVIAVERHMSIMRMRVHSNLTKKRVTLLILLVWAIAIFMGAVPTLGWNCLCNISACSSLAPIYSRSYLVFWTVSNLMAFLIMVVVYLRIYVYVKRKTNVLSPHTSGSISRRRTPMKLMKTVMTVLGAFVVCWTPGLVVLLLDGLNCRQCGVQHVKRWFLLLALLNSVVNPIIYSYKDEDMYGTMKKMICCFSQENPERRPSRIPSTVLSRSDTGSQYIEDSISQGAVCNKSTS

LPA2 = LPA2 (Homo sapiens, UniProt Q9HBW0); details: cited from earlier work
LPA1 = LPA1 (Homo sapiens, UniProt Q92633); details: cited from earlier work
Chain of LPA1 (Q92633 whole entry, species assumed): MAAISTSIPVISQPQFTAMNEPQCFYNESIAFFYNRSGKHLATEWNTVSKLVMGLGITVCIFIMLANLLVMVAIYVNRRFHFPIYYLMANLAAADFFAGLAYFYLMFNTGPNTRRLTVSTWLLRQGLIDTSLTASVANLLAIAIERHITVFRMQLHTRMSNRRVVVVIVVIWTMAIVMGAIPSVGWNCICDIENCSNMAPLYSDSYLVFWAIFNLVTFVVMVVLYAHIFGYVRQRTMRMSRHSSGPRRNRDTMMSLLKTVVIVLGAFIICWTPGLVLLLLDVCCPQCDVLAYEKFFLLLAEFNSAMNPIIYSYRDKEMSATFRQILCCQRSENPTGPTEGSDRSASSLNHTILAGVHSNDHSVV

Chain of LPA2 (Q9HBW0 whole entry, species assumed): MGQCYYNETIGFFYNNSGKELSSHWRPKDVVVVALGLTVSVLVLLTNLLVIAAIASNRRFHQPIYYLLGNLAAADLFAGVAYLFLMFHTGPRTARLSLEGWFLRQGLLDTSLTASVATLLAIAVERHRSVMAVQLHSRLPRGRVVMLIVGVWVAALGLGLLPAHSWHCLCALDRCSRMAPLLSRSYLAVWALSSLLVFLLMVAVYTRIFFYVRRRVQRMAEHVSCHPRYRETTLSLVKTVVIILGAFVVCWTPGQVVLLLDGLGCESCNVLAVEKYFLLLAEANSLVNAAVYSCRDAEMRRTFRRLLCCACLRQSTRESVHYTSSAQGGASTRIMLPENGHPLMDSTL

Row | SMILES | neointimal growth (rat carotid arteries) | morphology of VSMCs [1] | PPARγ immunoreactivity in carotid artery (PPARγ) | CD36 immunoreactivity in carotid artery (CD36) | neointima formation when delivered as BSA complexes (rat carotid arteries; Rosi 10 μM, LPA 20:4 2.5 μM, 10 μM albumin, 2 wk after treatment (FIG. 7F)) | neointima formation when delivered in rat plasma or serum (rat carotid arteries; Rosi 10 μM, LPA 20:4 2.5 μM, 2 wk after treatment (FIG. 7F)) | stimulation of CD36(−273)-Rluc reporter gene [2] | stimulation of CD36(−261)-Rluc reporter gene (deleted PPRE) [3] | decrease of hCAD mRNA expression ([1]; quantitative RT-PCR, day 5 (FIG. 8I)) | activity at LPA3 (LPA3) | activity at LPA2 (LPA2) | activity at LPA1 (LPA1)
1 | CCCCCCCCCCCCCCCCCCCC(=O)OC[C@@H](O)COP(=O)(O)O [LPA 20:0] | completely inactive | maintained the spindle-like differentiated morphology | only a few stained nuclei | no increase in immunoreactivity |  |  |  |  |  |  |  | 
2 | CCCCC/C=C\C/C=C\C/C=C\C/C=C\CCCC(=O)OC[C@@H](O)COP(=O)(O)O [LPA 20:4] | elicited progressive neointimal growth | developed a fibroblast-like flattened morphology | intense PPARγ immunoreactivity | intense CD36 immunoreactivity | elicited neointima formation | no neointima formation was detected | elicited significant stimulation | neither Rosi nor lysophosphatidic acid 20:4 activated the reporter gene | most pronounced |  |  | 
3 | CCCCCCCCCCCCOP(=O)(O)O [fatty alcohol phosphate 12:0] |  |  |  |  |  |  |  |  |  | antagonist | specific agonist | without any effect
